Columns and labels:
pri-miR-27a [1] = test: RT-qPCR of pri- and mature miR-27a in HeLa cells; type: cell-based, human
Method: (§1) Cell lines. Compounds were tested in MDA-MB-231 TNBC cells (HTB-26, ATCC), LNCaP metastatic prostate cancer cells (gifted from Junli Luo lab), MCF-7 (HTB-22, ATCC) breast cancer cells, HeLa cervical adenocarcinoma cells (CCL-2, ATCC), and MCF-10a, a model of healthy breast epithelial cells (CRL-10317, ATCC).
(§2) Cell culture and compound treatment. All cells were maintained at 37° C. with 5% CO2. MDA-MB-231 and LNCaP cells were cultured in RPMI 1640 medium with L-glutamine & 25 mM HEPES (Corning) supplemented with 10% (v/v) fetal bovine serum (FBS; Sigma) and 1× (v/v) Antibiotic-Antimycotic solution (Corning). MCF-7 and HeLa cells were cultured in DMEM medium with 4.5 g/L glucose (Corning), supplemented with 10% FBS, 1× (v/v) Glutagro (Corning), and 1× (v/v) Antibiotic-Antimycotic solution. […]
(§3) Analysis of mRNA abundance: Each cell line was grown as a monolayer in 12- or 24-well plates and treated as described in “Cell culture and compound treatment”. […] Relative abundance of mature miRNAs was calculated by normalizing to RNU6, and relative abundance for pri-miRNAs and mRNAs was calculated by normalizing to 18S ribosomal RNA, using the AAC, method. […]

pri-miR-27a [2] = test: RT-qPCR of pri- and mature miR-27a in MDA-MB-231 TNBC cells; type: cell-based, human; settings: MDA-MB-231, RT-qPCR
Method: as §1
Cell culture and compound treatment. All cells were maintained at 37° C. with 5% CO2. MDA-MB-231 and LNCaP cells were cultured in RPMI 1640 medium with L-glutamine & 25 mM HEPES (Corning) supplemented with 10% (v/v) fetal bovine serum (FBS; Sigma) and 1× (v/v) Antibiotic-Antimycotic solution (Corning). MCF-7 and HeLa cells were cultured in DMEM medium with 4.5 g/L glucose (Corning), supplemented with 10% FBS, 1× (v/v) Glutagro (Corning), and 1× (v/v) Antibiotic-Antimycotic solution. MCF10a cells were cultured in DMEM/F12 50/50 with L-glutamine & 15 mM HEPES (Corning), supplemented with 10% FBS, 20 ng/mL human epidermal growth factor (Pepro Tech Inc.), […] hydrocortisone (Pfaltz & Bauer), 100 ng/mL cholera toxin (Sigma-Aldrich), 10 μg/mL insulin (Sigma-Aldrich), and 1× (v/v) Antibiotic-Antimycotic solution.
MCF-10a cells were transfected with plasmids to express pri-miR-27a and mutant pri-miR-27a in 12- or 24-well plates with Lipofectamine 2000 per the manufacturer's protocol. For treatment of compounds, stocks were diluted in growth medium and added to cells for 48 h. The miRCURY miR-27a LNA inhibitor (QIAGEN, Cat #339121) was used as a positive control by diluting in growth medium to a final concentration of 1 nM. The miRCURY LNA Negative Control (QIAGEN, Cat #YI00199007-DDA) was used as a negative control, which has also diluted in growth medium to a final concentration of 1 nM.
Analysis of mRNA abundance: Each cell line was grown as a monolayer in 12- or 24-well plates and treated as described in “Cell culture and compound treatment”. After 48 h, the cells were lysed, and total RNA was harvested using a Zymo Quick RNA Miniprep Kit per the manufacturer's protocol. To measure the abundance of mature miRNAs, approximately 250 ng of total RNA was reverse transcribed using the High Flex Buffer provided in a miScript II RT Kit (Qiagen) per the manufacturer's protocol (10 μL total reaction volume). For pri-miRNAs and mRNA, approximately 300 ng of total RNA was reverse transcribed using a qScript cDNA synthesis kit (10 μL total reaction volume, Quanta BioSciences). For all types of RNAs, 2 μL of the RT reaction was used for qPCR using SYBR Green Master Mix and a QuantStudio™ 5 Real-Time PCR System. Relative abundance of mature miRNAs was calculated by normalizing to RNU6, and relative abundance for pri-miRNAs and mRNAs was calculated by normalizing to 18S ribosomal RNA, using the […]. (12)

MDA-MB-231 cells = test: miRNome profiling of all miRNAs detectable in MDA-MB-231 cells; type: cell-based, human; settings: 1 μM, FDR <1%, P<0.01
miR-24-2 = test: RT-qPCR of mature miR-24-2 in MDA-MB-231 cells; type: cell-based, human
Method: as §1, §2, §3

[3] = target: 5′GAG/3′CCC loop at pri-miR-27a's Drosha site; test: Binding affinity by microscale thermophoresis (MST), Cy5-labeled RNA; parameters: species or system human
Method: Binding affinity measurements: Binding affinities were measured by microscale thermophoresis (MST), performed on a Monolith NT.115 system (NanoTemper Technologies) with Cy5-labeled RNAs. These RNAs include: the 5′GAG/3′CCC SEQ ID NO: 16 loop at pri-miR-27a's Drosha site (Sequence:/5′-Cy5/rCrUrGrArGrGrUrGrArArArCrArUrCrCrCrArG SEQ ID NO: 17; Dharmacon), a related internal loop not selected by 9. 5′CAG/3′GCC SEQ ID NO: 17 loop (Sequence:/5′-Cy5/rCrUrCrArGrGrUrGrArArArCrArUrCrCrGrArG SEQ ID NO: 16; Dharmacon), and an RNA in which the loop is mutated to a base pair (Sequence:/5-Cy5/rCrUrGrArGrGrUrGrArArArCrArUrCrUrCrArG SEQ ID NO: 16; Dharmacon).
Briefly, Cy5-labeled RNA (10 nM) was prepared in 1× Binding Buffer and folded by heating at 60° C. for 5 min and then slowly cooling to room temperature. After cooling, Tween-20 was added to a final concentration of 0.1% (v/v). Compound solutions were prepared separately in 20 μL of 1× Binding Buffer at a final concentration of 5 μM (1% (v/v) DMSO), followed by 1:1 serial dilutions in 1× Binding Buffer. RNA and compound solutions were then mixed 1:1 by volume to a total of 20 μL.
Samples were incubated for 20 min at room temperature and then loaded into premium capillaries (NanoTemper Tech, Cat #MO-K025). The following parameters were used for MST measurements: 5-20% LED power (adjusted to keep fluorescence intensity between 2000 and 8000), 80% MST power, Laser-On time=30 s, Laser-Off time=25 s. The resulting data were analyzed by calculating the change in thermophoresis as a function of compound concentration and fitted by Equation 1, a one site binding model, in NanoTemper Tech's MST analysis software to yield the dissociation constant (Kd):
Where F is the concentration of fluorescently labeled RNA; unbound and bound refer to the thermophoresis signal at completely unbound and bound state of RNA, respectively; c is the concentration of the compound; f (c) is the thermophoresis signal at compound concentration of c; and Kd is the dissociation constant.

miR-23a = test: RT-qPCR of mature miR-23a in MDA-MB-231 cells; type: cell-based, human
Method: as §1, §2, §3

WT pri-miR-27a = test: RT-qPCR of miR-27a biogenesis in MCF-10a cells transfected with WT pri-miR-27a; type: cell-based, human; settings: WT pri-miR-27a plasmid, 48 h
Excerpt: To gauge the specificity of 9 for pri-miR-27a, inhibition of biogenesis was first studied in a cellular model of healthy breast epithelium, MCF-10a, in which miR-27a expression is not detectable (Ct>31). MCF-10a cells were transfected with a plasmid encoding WT pri-miR-27a or mutant in which the two 5′GAG/3′CCC internal loops at and nearby the Drosha processing site were mutated to base pairs. In the absence of compound treatment, both primary miRNA transcripts were processed similarly, generating mature miR-27a, as determined by RT-qPCR.
as §1
Cell culture and compound treatment. All cells were maintained at 37° C. with 5% CO2. […]
as §3

C#CCN(CC(N)=O)C(=O)C[C@H](Cc1c[nH]c2ccccc12)NC(=O)[C@@H]1C[C@H](NC(=O)Cn2c(=O)[nH]c3ccccc3c2=O)CN1 [Compound 9]
dose with significant inhibition of miR-27a processing (pri-miR-27a [1]): 100 nM | inhibition of miR-27a (comparison of 5, 7, 9, 10) (pri-miR-27a [2]): inhibited miR-27a to a greater extent than 5 and 7 | pri-miR-27a levels (pri-miR-27a [2]; 48 h): increased | IC50 (pri-miR-27a [2]; 48 h, read-out: IC50 for reduction of mature miR-27a levels): ~1000 nM | only statistically significant effect across the miRNome (MDA-MB-231 cells): downregulation of miR-27a | effect on levels of mature miR-24-2 (miR-24-2): no effect | Kd [3]: 90 ± 20 nM | effect on levels of mature miR-23a (miR-23a): no effect | mature miR-27a levels (WT pri-miR-27a): reduction | pri-miR-27a levels (WT pri-miR-27a): increase

Reference: patent US20250051762A1, “PLATFORM USING DNA-ENCODED SMALL MOLECULE LIBRARIES AND RNA SELECTION TO DESIGN SMALL MOLECULES THAT TARGET RNA” (University of Florida Research Foundation, Incorporated, priority 2021, published 2025)
